# Data from publication PMC8496750, “Identification of the organic anion transporting polypeptides responsible for the hepatic uptake of the major metabolite of epyrifenacil, S‐3100‐CA, in mice” (Pharmacology Research & Perspectives, 2021).
# Key:
# mouse Oatp1a1 [1] = target: T1, mouse Oatp1a1 (Mus musculus, UniProt Q9QXZ6); assay: Uptake assay for radiolabeled substrates, mouse Oatp1a1 expressing 293FT cells; assay type: in vitro ADME; design: expressed in transfected cells; host or cells: 293FT cells; details: for Ratio of uptake amount relative to the uptake into mock cells: 10‐min incubation
# T1 sequence (Q9QXZ6 1-670): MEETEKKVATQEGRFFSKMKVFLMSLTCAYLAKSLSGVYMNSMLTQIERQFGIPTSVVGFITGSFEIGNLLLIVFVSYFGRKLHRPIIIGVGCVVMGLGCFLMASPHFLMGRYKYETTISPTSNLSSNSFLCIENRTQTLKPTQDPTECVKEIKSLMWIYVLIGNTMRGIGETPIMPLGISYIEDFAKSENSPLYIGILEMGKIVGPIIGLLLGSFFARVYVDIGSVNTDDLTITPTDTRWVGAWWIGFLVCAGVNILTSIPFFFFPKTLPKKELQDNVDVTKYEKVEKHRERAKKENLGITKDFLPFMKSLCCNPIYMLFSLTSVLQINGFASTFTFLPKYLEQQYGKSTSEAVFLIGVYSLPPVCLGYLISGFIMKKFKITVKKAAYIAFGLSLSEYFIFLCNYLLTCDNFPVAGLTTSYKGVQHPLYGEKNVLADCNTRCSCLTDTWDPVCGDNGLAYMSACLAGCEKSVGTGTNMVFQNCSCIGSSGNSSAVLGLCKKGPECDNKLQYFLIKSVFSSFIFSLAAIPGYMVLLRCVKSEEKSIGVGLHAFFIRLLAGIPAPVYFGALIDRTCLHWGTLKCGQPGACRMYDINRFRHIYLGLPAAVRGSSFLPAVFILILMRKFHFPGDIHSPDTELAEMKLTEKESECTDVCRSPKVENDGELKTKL
# Protocol: 293FT cells were purchased from Thermo Fisher Scientific, Inc.. The cells were grown in Dulbecco's modified Eagle medium (supplemented with 4.5 g/L glucose and 2 mM L‐glutamine) at 37°C, 5% CO2, and 95% humidity. The cells were passaged 3 times per week by harvesting cells using trypsin and plating at a density of 1.0 × 10^4 cells/cm^2 in a 10 cm cell culture plate for maintenance culture. The 293FT cells were detached using trypsin and re‐seeded at a density of 2.5 × 10^4 cells/cm^2 in BioCoat™ Collagen I 6‐well plates (Corning Inc.) for transfection and then treated with 1.2 μg of plasmid vector and 3.2 μl of Lipofectamine™ 2000 Transfection Reagent (Thermo Fisher Scientific, Inc.) according to the manufacturer's instructions. After a 3‐h treatment, the transfection medium was replaced with a fresh cell culture medium and incubated at 37°C with 95% humidity and 5% CO2 until ready for the assay.
# Transport experiments were conducted approximately 24 h post‐transfection. The experiments were initiated by aspirating culture medium and addition of pre‐warmed radiolabeled substrate solution (final 1.0% of acetonitrile or 0.9% of ethanol in phosphate‐buffered saline (PBS[−])) to each well. After a 10‐min incubation, cells were washed twice with 1 ml of ice‐cold PBS(−) and lysed with 700 μl of 1.0 M NaOH for 3 h or more at room temperature. The lysate was transferred to a 1.5‐ml tube, and neutralized with 350 μl of 2.0 M HCl and 350 μl of 2.0% sodium dodecyl sulfate (SDS) solution. From the lysate, 1.0 ml was transferred to a vial containing 10 ml of Emulsifier Scintillator Plus to measure the radioactivity in the LSC. The protein concentration of the cell lysate was also measured using a Pierce™ BCA Protein Assay Kit (Thermo Fisher Scientific, Inc.), which was used to normalize, according to the cell number, the radioactivity in the cell lysate extract. The protein assay was performed in duplicate. Each sample type was assayed in triplicate wells, and each run was performed twice. When the difference in mean uptake between OATP expressing cells and mock cells was more than 2 times, the OATP was judged to be involved in transportation of the substrate. […] Each sample type was assayed in triplicate wells.
# mouse Oatp1a4 [2] = target: T2, mouse Oatp1a4 (Mus musculus, UniProt Q9EP96); assay: in vitro; details: 293FT cells transiently transfected with mouse Oatp1a4, probe radiolabeled S‐3100‐CA
# T2 sequence (Q9EP96 1-670): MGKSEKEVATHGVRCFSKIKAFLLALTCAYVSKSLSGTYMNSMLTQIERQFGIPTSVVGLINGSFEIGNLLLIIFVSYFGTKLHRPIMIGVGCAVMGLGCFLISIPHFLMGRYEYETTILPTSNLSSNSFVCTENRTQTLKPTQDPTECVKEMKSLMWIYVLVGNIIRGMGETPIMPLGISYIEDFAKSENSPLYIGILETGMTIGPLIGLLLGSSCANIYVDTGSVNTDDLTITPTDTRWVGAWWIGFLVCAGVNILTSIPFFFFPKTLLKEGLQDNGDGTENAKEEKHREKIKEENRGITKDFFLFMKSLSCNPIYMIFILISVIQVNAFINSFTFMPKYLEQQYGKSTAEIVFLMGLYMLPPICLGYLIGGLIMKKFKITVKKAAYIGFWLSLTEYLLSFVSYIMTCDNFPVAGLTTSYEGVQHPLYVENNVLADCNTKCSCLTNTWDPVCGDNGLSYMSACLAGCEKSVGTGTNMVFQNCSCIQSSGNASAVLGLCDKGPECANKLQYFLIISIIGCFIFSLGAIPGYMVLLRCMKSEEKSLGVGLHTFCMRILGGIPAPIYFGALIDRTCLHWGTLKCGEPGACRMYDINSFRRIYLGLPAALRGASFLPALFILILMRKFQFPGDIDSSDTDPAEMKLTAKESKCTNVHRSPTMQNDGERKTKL
# Protocol: (§1) Transport experiments were conducted approximately 24 h post‐transfection. The experiments were initiated by aspirating culture medium and addition of pre‐warmed radiolabeled substrate solution (final 1.0% of acetonitrile or 0.9% of ethanol in phosphate‐buffered saline (PBS[−])) to each well. After a 10‐min incubation, cells were washed twice with 1 ml of ice‐cold PBS(−) and lysed with 700 μl of 1.0 M NaOH for 3 h or more at room temperature. The lysate was transferred to a 1.5‐ml tube, and neutralized with 350 μl of 2.0 M HCl and 350 μl of 2.0% sodium dodecyl sulfate (SDS) solution. From the lysate, 1.0 ml was transferred to a vial containing 10 ml of Emulsifier Scintillator Plus to measure the radioactivity in the LSC. The protein concentration of the cell lysate was also measured using a Pierce™ BCA Protein Assay Kit (Thermo Fisher Scientific, Inc.), which was used to normalize, according to the cell number, the radioactivity in the cell lysate extract. The protein assay was performed in duplicate. Each sample type was assayed in triplicate wells, and each run was performed twice. […] Each sample type was assayed in triplicate wells.
# mouse Oatp1a1 [3] = target: T1, mouse Oatp1a1; assay: in vitro; details: 293FT cells transiently transfected with mouse Oatp1a1, probe radiolabeled S‐3100‐CA
# Protocol: as §1
# mouse Oatp1a4 [4] = target: T2, mouse Oatp1a4; details: inhibitor at 100 μM
# Protocol: as §1
Compound,Ratio of uptake amount relative to the uptake into mock cells (mouse Oatp1a1 [1]; Run_1),Ratio of uptake amount relative to the uptake into mock cells (mouse Oatp1a1 [1]; Run_2),"Uptake, times higher than in mock cells (mouse Oatp1a1 [1])","inhibition at 10 min, 10 µM (mouse Oatp1a4 [2])","inhibition at 10 min, 10 µM (mouse Oatp1a1 [3])","Uptake of S‐3100‐CA, % of that by vehicle‐treated cells (mouse Oatp1a4 [4])"
"C[C@]12CC[C@@H]3c4ccc(OS(=O)(=O)O)cc4CC[C@H]3[C@@H]1CCC2=O [E3S, Estrone 3‐sulfate]",23.4,34.4,–,–,–,–
"C[C@]12CC[C@@H]3c4ccc(O)cc4CC[C@H]3[C@@H]1CC[C@@H]2O[C@@H]1O[C@H](C(=O)O)[C@@H](O)[C@H](O)[C@H]1O [E217βG, Estradiol 17β‐D‐glucuronide]",84.9,62.2,> 50 times,–,–,–
"CO[C@H]1/C=C/O[C@@]2(C)Oc3c(C)c(O)c4c(O)c(c(/C=N/N5CCN(C)CC5)c(O)c4c3C2=O)NC(=O)/C(C)=C\C=C\[C@H](C)[C@H](O)[C@@H](C)[C@@H](O)[C@@H](C)[C@H](OC(C)=O)[C@@H]1C [RIF, Rifampicin]",–,–,–,> 50%,> 50%,less than 40%
Cn1c(C(F)(F)F)cc(=O)n(-c2cc(Oc3cccnc3OCC(=O)O)c(Cl)cc2F)c1=O [S‐3100‐CA],3.3,4.3,–,–,–,–
